Data published in article PMC3782441, “Putative Bioactive Motif of Tritrpticin Revealed by an Antibody with Biological Receptor-Like Properties” (PLoS ONE, 2013).
≈ marks a conversion by molar mass, not a printed value. Entries after “also recorded” stand apart in the source; their conditions may differ. Read-outs that look alike come from different tables or passages of the source. Where no end group is shown, it is not given here.

Key:
E. coli ATCC25922 = assay type: cell-based; settings: ATCC25922, 2 h
Experimental: (§1) Radial diffusion assay using double-layered agarose involved incubating ~ 2 x 10^6 mid-log phase bacterial cells with 50 nmol of peptide solution in nutrient-poor agarose at 37°C for 3 h. […] Minimum inhibitory concentration (MIC) was determined by broth microdilution method in which ~10^4 bacterial cells in 100 µl of 10 mM phosphate buffer were incubated for with serially diluted peptide solution in a 96-well microtiter plate for 2 hrs at 37°C. Addition of LB medium subsequently was used to ascertain the minimum peptide concentration sufficient to prevent bacterial growth, observable at OD600.

E. coli BL21λD3 [1] = assay type: cell-based; settings: BL21λD3, 2 h
Experimental: as §1

[2] = ref [20]; cited from earlier work
From the text: (§2) It is now well established that antimicrobial peptides are an important component of the innate defenses in a wide variety of species. They display broad spectrum of activity, rapid killing kinetics, and a lower incidence of generating resistance and are being increasingly explored as an alternative to conventional antibiotics especially as more and more drug resistant strains emerge. As most of these peptides kill microorganisms rapidly as compared to other antibiotics, development of resistance to them also is less likely. One of the large classes of antimicrobial pepti ...

DNA = settings: ref [17],[18]; cited from earlier work
From the text: as §2

calmodulin = settings: ref [19]; cited from earlier work
From the text: as §2

topoisomerase I = settings: ref [19]; cited from earlier work
From the text: as §2

E. coli BL21λD3 [3] = assay: Radial diffusion assay, E. coli BL21λD3; assay type: cell-based; settings: 50 nmol of peptide, 37°C for 3 h
Experimental: as §1

[4] = test system: different bacterial strains; assay: Antimicrobial activity against different bacterial strains (radial diffusion, MIC); assay type: cell-based
Experimental: as §1

mAb 6C6D7 = assay: SPR binding of K-tritrpticin (immobilised) to mAb 6C6D7; set-up: species or system BALB/c mice; settings: for ka (rate of association) / kd (rate of dissociation): BIAcore 2000, CM4 chip, bivalent model; for Kd: KD = kdiss/kass, read-out: KD (dissociation constant); for ΔGeq (Gibbs free energy at equilibrium): ΔGeq = RTlnKD
Experimental: (§3) Affinity measurements were based on surface plasmon resonance (SPR) technique, carried out on BIAcore 2000 (GE Healthcare). K-tritrpticin was amine coupled to a CM4 chip (~6 resonance units) and mAb 6C6D7 was injected as analyte with a 6 min association/15 min dissociation phase. Regeneration was achieved by 0.1 N HCl. Interaction curves were simultaneously fit using bivalent model in BIAevaluation program to determine KD = kdiss/kass and ΔGeq = RTlnKD, R is the universal gas constant and T is the temperature in kelvin. The temperature sensitivity of Ag association and dissociation rates of the Ab was assessed on the basis of the Arrhenius plots. The slopes of the Arrhenius plots provide the activation energy (Ea) for the corresponding steps. The individual thermodynamic parameters were calculated using the following equations: ΔHa/d = Ea-RT; ln(ka/d/T) = -ΔHa/d/RT + […] + ln(K'/h). In these equations K' represents Boltzmann’s constant and h the Planck’s constant. Using these equations, the corresponding values of ΔH, T∆S, and ΔG for association and dissociation as well as the corresponding net values at equilibrium were calculated.

K-tritrpticin (pig) [5] = target: T1, K-tritrpticin (pig); assay: SPR; BIAcore 2000; K-tritrpticin amine coupled to a CM4 chip (~6 RU), mAb 6C6D7 as analyte, 6 min association/15 min dissociation; bivalent model; 15 C
T1 sequence (peptide): KVRRFPWWWPFLRR

K-tritrpticin (pig) [6] = target: T1, K-tritrpticin (pig); assay: SPR; BIAcore 2000; K-tritrpticin amine coupled to a CM4 chip (~6 RU), mAb 6C6D7 as analyte, 6 min association/15 min dissociation; bivalent model; 20 C
K-tritrpticin (pig) [7] = target: T1, K-tritrpticin (pig); assay: SPR; BIAcore 2000; K-tritrpticin amine coupled to a CM4 chip (~6 RU), mAb 6C6D7 as analyte, 6 min association/15 min dissociation; bivalent model; 30 C
K-tritrpticin (pig) [8] = target: T1, K-tritrpticin (pig); assay: SPR; BIAcore 2000; K-tritrpticin amine coupled to a CM4 chip (~6 RU), mAb 6C6D7 as analyte, 6 min association/15 min dissociation; bivalent model; 35 C
K-tritrpticin (pig) [9] = target: T1, K-tritrpticin (pig); assay: SPR; BIAcore 2000; K-tritrpticin amine coupled to a CM4 chip (~6 RU), mAb 6C6D7 as analyte (62.5-1000 nM), 6 min association/15 min dissociation; bivalent model; 25 C
[10] = ELISA of hybridoma clones on tritrpticin; assay type: binding; settings: culture supernatant screening
From the text: (§4) The sera from the immunized mouse were checked for anti-tritrpticin antibody titers. The highest responder of the group of mice was then sacrificed to harvest B cells from the spleen. The cells were allowed to fuse with the SP2/0 myeloma cells, maintained in log phase, in the presence of PEG1600 (Sigma-Aldrich). The cells were subjected to hypoxanthine-aminopterin-thymidine (Sigma) selection in DMEM (PAA Laboratories GmbH, Austria) in which only the hybrid cells are able to survive and grow. The supernatant of the wells with colonies of hybrid cells was screened for the presence of peptide recognizing Ab by ELISA, in which tritrpticin was used as coating antigen. The positive clones were further subcloned using limited dilution technique to ensure monoclonality.
(§5) The binding of the Ab from cell supernatant or in purified form, to the various peptide ligands was assayed by indirect ELISA. The peptide analogs were used as coating Ag at a concentration of 10 µg per well on 96-well immunosorbent plates. […] HRP –labeled goat anti-mouse IgG was used as secondary Ab (Jackson Immuno Research) and o-phenylenediamine (Sigma) and H2O2 were used as peroxidase substrate. Absorbance was recorded at 490 nm after addition of 1 N H2SO4.

BSA = assay: ELISA of hybridoma clones on BSA (negative control); assay type: binding
From the text: as §4, §5

[11] = ELISA of hybridoma clones on indolicidin; assay type: binding
From the text: as §4, §5

[12] = SPR binding of mAb 6C6D7 (analyte) to peptide antigen K-tritrpticin
Experimental: as §3

[13] = equilibrium, all temperatures 15-35 °C, Arrhenius plot

## CC(C)C[C@H](NC(=O)[C@H](Cc1ccccc1)NC(=O)[C@@H]1CCCN1C(=O)[C@H](Cc1c[nH]c2ccccc12)NC(=O)[C@H](Cc1c[nH]c2ccccc12)NC(=O)[C@H](Cc1c[nH]c2ccccc12)NC(=O)[C@@H]1CCCN1C(=O)[C@H](Cc1ccccc1)NC(=O)[C@H](CCCNC(=N)N)NC(=O)[C@H](CCCNC(=N)N)NC(=O)[C@@H](N)C(C)C)C(=O)N[C@@H](CCCNC(=N)N)C(=O)N[C@@H](CCCNC(=N)N)C(=O)O [Tritrpticin]
E. coli ATCC25922
  MIC: 3.12 µM (≈ 5.94 µg/mL)
E. coli BL21λD3 [1]
  MIC: 3.12 µM (≈ 5.94 µg/mL)

## ILPWKWPWWPWRR [indolicidin, closely related cathelicidin peptide indolicidin ([…])]
[2]
  interaction with ATP: interaction
DNA
  interaction with DNA: interaction
calmodulin
  interaction with calmodulin: interaction
Topoisomerase I
  interaction with topoisomerase I: interaction

## EHGTPPRVMSSM [unrelated peptide used as negative control, reference compound]
E. coli BL21λD3 [3]
  formation of clearance zone: did not led to the formation of clearance zone
[4]; 50 nmoles of peptide, radial diffusion, different bacterial strains
  formation of clearance zone: did not led to the formation of clearance zone

## K-tritrpticin: tritrpticin with lysine introduced at the N terminus (KVRRFPWWWPFLRR)
mAb 6C6D7; 15 °C
  ka (rate of association): 24400 M⁻¹ s⁻¹
  kd (rate of dissociation): 0.00515 s⁻¹
  Kd: 211 nM
  ΔGeq (Gibbs free energy at equilibrium): -8.80 kcal/mol
mAb 6C6D7; 20 °C
  ka (rate of association): 37900 M⁻¹ s⁻¹
  kd (rate of dissociation): 0.0115 s⁻¹
  Kd: 303 nM
  ΔGeq (Gibbs free energy at equilibrium): -8.74 kcal/mol
mAb 6C6D7; 25 °C
  ka (rate of association): 39100 M⁻¹ s⁻¹
  kd (rate of dissociation): 0.0137 s⁻¹
  Kd: 350 nM
  ΔGeq (Gibbs free energy at equilibrium): -8.80 kcal/mol
mAb 6C6D7; 30 °C
  kd (rate of dissociation): 0.0231 s⁻¹
  Kd: 545 nM
  ΔGeq (Gibbs free energy at equilibrium): -8.68 kcal/mol
mAb 6C6D7; 35 °C
  ka (rate of association): 54100 M⁻¹ s⁻¹
  kd (rate of dissociation): 0.0343 s⁻¹
  Kd: 634 nM
  ΔGeq (Gibbs free energy at equilibrium): -8.73 kcal/mol

## YHDRPPPRPFKH-OH [12PhD1]
E. coli ATCC25922
  MIC: 400 µM
E. coli BL21λD3 [1]
  MIC: 400 µM
[4]
  antimicrobial activity compared with tritrpticin: lower though qualitatively similar broad spectrum antimicrobial activity as tritrpticin
[4]; radial diffusion and MIC, bacterial strains
  antibiotic activity: broad spectrum antibiotic activity

B1: anti-tritrpticin monoclonal antibody 6C6D7 (antibody, V domains shown)
VH: VELQESGPELVKPGASVKVSCKASGYSSTDYNMNWVKQSHGKSLEWIGSFDPYNGGITYNQKFEGKATLTVDKSSNTAFMHLNSLTSEDSAVYYCAKYFGYDAWFAYWGQGTLVTVST
VL: FIVMTQTPASLAVSLGQRATISCKASQSVDYGGDSYLNWYQQKPGQPPKLLIYAASNLESGIPARFSGSGSGTDFTLNIHPVEEEDAATYFCQQSHEDPLTFGAGTKLELR
K-tritrpticin (pig) [5]
  Kd: 211 nM
  koff: 0.00515 s⁻¹
  kon: 24400 M⁻¹ s⁻¹
K-tritrpticin (pig) [6]
  Kd: 303 nM
  koff: 0.0115 s⁻¹
  kon: 37900 M⁻¹ s⁻¹
K-tritrpticin (pig) [7]
  Kd: 545 nM
  koff: 0.0231 s⁻¹
  kon: 44200 M⁻¹ s⁻¹
K-tritrpticin (pig) [8]
  Kd: 634 nM
  koff: 0.0343 s⁻¹
  kon: 54100 M⁻¹ s⁻¹
K-tritrpticin (pig) [9]
  Kd: 350 nM
  koff: 0.0137 s⁻¹
  kon: 39100 M⁻¹ s⁻¹

B2: 6C6: anti-tritrpticin hybridoma clone, subcloned as 6C6D7 (antibody, V domains shown)
VH: VELQESGPELVKPGASVKVSCKASGYSSTDYNMNWVKQSHGKSLEWIGSFDPYNGGITYNQKFEGKATLTVDKSSNTAFMHLNSLTSEDSAVYYCAKYFGYDAWFAYWGQGTLVTVST
VL: FIVMTQTPASLAVSLGQRATISCKASQSVDYGGDSYLNWYQQKPGQPPKLLIYAASNLESGIPARFSGSGSGTDFTLNIHPVEEEDAATYFCQQSHEDPLTFGAGTKLELR
[10]
  binding to tritrpticin (ELISA): significant binding
BSA
  binding to BSA (ELISA): negligible binding; also recorded: not able to bind
[11]
  binding to indolicidin (ELISA): not able to bind

B3: mAb 6C6D7: anti-tritrpticin monoclonal antibody, 6C6 subcloned as 6C6D7 (antibody, V domains shown)
VH: VELQESGPELVKPGASVKVSCKASGYSSTDYNMNWVKQSHGKSLEWIGSFDPYNGGITYNQKFEGKATLTVDKSSNTAFMHLNSLTSEDSAVYYCAKYFGYDAWFAYWGQGTLVTVST
VL: FIVMTQTPASLAVSLGQRATISCKASQSVDYGGDSYLNWYQQKPGQPPKLLIYAASNLESGIPARFSGSGSGTDFTLNIHPVEEEDAATYFCQQSHEDPLTFGAGTKLELR
[12]; 15 °C to 35 °C
  fold decrease in affinity (KD): 3 fold
  fold increase in kdiss: approximately 7 fold
  fold increase in the association rate constant: 2 fold
[12]; 25 °C
  kass: 39100 M⁻¹ s⁻¹
  kdiss: 0.0137 s⁻¹
[12]; 25 °C, read-out: affinity (KD)
  Kd: 350 nM
[12]; Arrhenius plots, 15-35 °C
  temperature sensitivity of dissociation phase: more sensitive to variation in temperature in comparison with the association phase
[12]; [13]
  enthalpy contribution to binding (ΔH): marginally unfavorable
  entropy contribution to binding (TΔS): highly favorable
